In ChEMBL document CHEMBL1201862, “PubChem BioAssay data set” (2004):
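Assay format: 96-well plates, 48-hour exposure. GI50: concentration for 50% inhibition of growth.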 Activity calls are given as the source filed them. Cut-off read from the data, not from the text of the source: active = GI50 up to about 1.1 µM and inactive = higher. Peptide text beside a SMILES is read from it.

Experiments:
Assay in all cases: NCI-60 cell line screen, 48 h
[1] = tested on: UACC-257
[2] = tested on: PC-3
[3] = tested on: Hs-578T
[4] = tested on: SNB-19
[5] = tested on: NCI/ADR-RES
[6] = tested on: SK-MEL-28
[7] = tested on: CAKI-1
[8] = tested on: SK-MEL-5
[9] = tested on: SF-295
[10] = tested on: CCRF-CEM
[11] = tested on: RPMI-8226
[12] = tested on: A549
[13] = tested on: NCI-H23
[14] = tested on: BT-549
[15] = tested on: COLO 205
[16] = tested on: OVCAR-4
[17] = tested on: HL-60
[18] = tested on: HCT-15
[19] = tested on: NCI-H460
[20] = tested on: HCC 2998

Compound	GI50 [1]	GI50 [2]	GI50 [3]	GI50 [4]	GI50 [5]	GI50 [6]	GI50 [7]	GI50 [8]	GI50 [9]	GI50 [10]	GI50 [11]	GI50 [12]	GI50 [13]	GI50 [14]	GI50 [15]	GI50 [16]	GI50 [17]	GI50 [18]	GI50 [19]	GI50 [20]
O=C(/C=C/c1ccc(O)cc1)c1cc(O)cc(O)c1	16.3 µM (inactive)	11.1 µM (inactive)	29.9 µM (inactive)	16.7 µM (inactive)	18.9 µM (inactive)	21.2 µM (inactive)	14.4 µM (inactive)	15.5 µM (inactive)	15.7 µM (inactive)	3.36 µM (inactive)	2.16 µM (inactive)	16.5 µM (inactive)	20.5 µM (inactive)	14.3 µM (inactive)	18 µM (inactive)	20.6 µM (inactive)	1.92 µM (inactive)	5.4 µM		
CC(=O)c1cc2c(s1)C(=O)c1sccc1C2=O	0.0146 µM (active)	0.0568 µM (active)	0.0365 µM (active)	0.0766 µM (active)	0.056 µM (active)	0.014 µM (active)	0.212 µM (active)	< 0.0113 µM (active)	0.04 µM (active)	0.0392 µM (active)	0.0392 µM (active)	0.207 µM (active)	0.0184 µM (active)	0.0184 µM (active)	1.31 µM (inactive)	0.0706 µM (active)		0.0214 µM	0.0908 µM (active)	0.218 µM (active)
C[N+](C)(C)c1nc(N)nc2c1ncn2C1OC(CO)C(O)C1O (centres undefined)	> 100 µM (inactive)	> 100 µM (inactive)	> 100 µM (inactive)	> 100 µM (inactive)	> 100 µM (inactive)	> 100 µM (inactive)	> 100 µM (inactive)	> 100 µM (inactive)		3.08 µM (inactive)	> 100 µM (inactive)	> 100 µM (inactive)	> 100 µM (inactive)	> 100 µM (inactive)	> 100 µM (inactive)	> 100 µM (inactive)		> 100 µM	> 100 µM (inactive)	> 100 µM (inactive)
COc1cccc(-c2cc(O)c3c(C)ccnc3n2)c1		0.0223 µM (active)	0.0222 µM (active)	0.031 µM (active)	0.0224 µM (active)			0.0241 µM (active)	0.029 µM (active)	0.029 µM (active)	0.0327 µM (active)	0.0518 µM (active)	0.0625 µM (active)	21.2 µM (inactive)	0.0199 µM (active)	18 µM (inactive)	< 0.0114 µM (active)	0.0486 µM	0.0395 µM (active)	0.0352 µM (active)
Nc1c(S(=O)(=O)O)cc(Nc2cccc(S(N)(=O)=O)c2)c2c1C(=O)c1ccccc1C2=O	54.2 µM (inactive)	> 100 µM (inactive)	29 µM (inactive)	> 100 µM (inactive)	> 100 µM (inactive)	> 100 µM (inactive)	> 100 µM (inactive)	37.5 µM (inactive)	49.7 µM (inactive)	> 100 µM (inactive)	> 100 µM (inactive)	> 100 µM (inactive)	35.1 µM (inactive)	> 100 µM (inactive)	38.1 µM (inactive)	> 100 µM (inactive)	> 100 µM (inactive)	84.5 µM	87.5 µM (inactive)	
c1ccc(-c2cc(-c3cc(-c4ccccc4)[nH]n3)[nH]n2)cc1	> 100 µM (inactive)	> 100 µM (inactive)	> 100 µM (inactive)	> 100 µM (inactive)	> 100 µM (inactive)		> 100 µM (inactive)	> 100 µM (inactive)	> 100 µM (inactive)	> 100 µM (inactive)		> 100 µM (inactive)	> 100 µM (inactive)	> 100 µM (inactive)	> 100 µM (inactive)	> 100 µM (inactive)		> 100 µM	> 100 µM (inactive)	> 100 µM (inactive)
CCCCCN1C(=O)C(Cc2ccccc2)N=C(c2ccc(O)cc2)c2cc(Cl)ccc21 (centres undefined)	7.66 µM (inactive)	6.21 µM (inactive)	7.53 µM (inactive)	14.5 µM (inactive)	8.11 µM (inactive)	15.1 µM (inactive)	13.8 µM (inactive)		6.93 µM (inactive)	12.2 µM (inactive)	2.9 µM (inactive)	13.6 µM (inactive)	4.98 µM (inactive)	17.4 µM (inactive)	2.96 µM (inactive)	7.73 µM (inactive)	2.98 µM (inactive)	7.67 µM	7.73 µM (inactive)	
Cc1nc(O)c(O)c(CN2CCCCC2)n1	> 100 µM (inactive)	> 100 µM (inactive)	> 100 µM (inactive)	> 100 µM (inactive)	> 100 µM (inactive)	> 100 µM (inactive)	> 100 µM (inactive)	> 100 µM (inactive)	> 100 µM (inactive)	> 100 µM (inactive)	> 100 µM (inactive)	> 100 µM (inactive)	> 100 µM (inactive)	> 100 µM (inactive)	> 100 µM (inactive)	> 100 µM (inactive)	42.7 µM (inactive)	> 100 µM	> 100 µM (inactive)	
CC(Nc1ccc(Cl)c(Cl)c1)c1ccncc1 (centres undefined)	26.2 µM (inactive)	19.4 µM (inactive)	> 10 µM (inactive)	22.5 µM (inactive)	28.1 µM (inactive)	35.7 µM (inactive)	31 µM (inactive)	16.7 µM (inactive)	23.9 µM (inactive)	20.7 µM (inactive)	5.75 µM (inactive)	10.5 µM (inactive)	31.4 µM (inactive)	26.1 µM (inactive)	16.5 µM (inactive)	58.2 µM (inactive)		40.3 µM	16.6 µM (inactive)	
Cc1nc2c(=O)n(C)c(=O)nc-2n(CCO)c1C	> 100 µM (inactive)	> 100 µM (inactive)	> 100 µM (inactive)	> 100 µM (inactive)	> 100 µM (inactive)	> 100 µM (inactive)	> 100 µM (inactive)	> 100 µM (inactive)	> 100 µM (inactive)	> 100 µM (inactive)	> 100 µM (inactive)	> 100 µM (inactive)	> 100 µM (inactive)	> 100 µM (inactive)	> 100 µM (inactive)	> 100 µM (inactive)		> 100 µM	> 100 µM (inactive)	> 100 µM (inactive)
CCOC(=O)c1c(N2CCCC2)[nH]c(=O)c(C(c2ccc(Cl)c([N+](=O)[O-])c2)c2c(O)c(C(=O)OCC)c(N3CCCC3)[nH]c2=O)c1O	41.5 µM (inactive)	28.1 µM (inactive)	6.55 µM (inactive)	15.5 µM (inactive)	28.7 µM (inactive)	35.3 µM (inactive)	24.4 µM (inactive)	37.8 µM (inactive)	37.6 µM (inactive)	23.6 µM (inactive)	42.9 µM (inactive)	> 100 µM (inactive)	22 µM (inactive)	16.3 µM (inactive)	> 100 µM (inactive)	> 100 µM (inactive)		> 100 µM	> 100 µM (inactive)	> 100 µM (inactive)
COc1ccc(Nc2nn3c(=O)c4c(C)c(C)sc4nc3s2)cc1	29.9 µM (inactive)	36.1 µM (inactive)	79.1 µM (inactive)	47.6 µM (inactive)	39.1 µM (inactive)	61.1 µM (inactive)	39.3 µM (inactive)	41.1 µM (inactive)	37.7 µM (inactive)	31.6 µM (inactive)		18.6 µM (inactive)	18.7 µM (inactive)	> 100 µM (inactive)	> 100 µM (inactive)	24.4 µM (inactive)	97.5 µM (inactive)	44.7 µM	28.6 µM (inactive)	
Cc1cc(S(=O)(=O)O)ccc1/N=N/c1c(O)ccc2ccccc12	> 100 µM (inactive)	> 100 µM (inactive)	> 100 µM (inactive)	> 100 µM (inactive)	> 100 µM (inactive)	> 100 µM (inactive)	> 100 µM (inactive)	> 100 µM (inactive)	> 100 µM (inactive)	> 100 µM (inactive)	> 100 µM (inactive)	> 100 µM (inactive)	> 100 µM (inactive)	> 100 µM (inactive)	> 100 µM (inactive)	> 100 µM (inactive)	> 100 µM (inactive)	> 100 µM		
COc1cccc(/C=C2\CCCc3ccccc3C2=O)c1	15.2 µM (inactive)	16.2 µM (inactive)	17.9 µM (inactive)	11.7 µM (inactive)	17.9 µM (inactive)	18.1 µM (inactive)	23.4 µM (inactive)		14.9 µM (inactive)	12.3 µM (inactive)	6.35 µM (inactive)	23 µM (inactive)	15.1 µM (inactive)	16.2 µM (inactive)	17.8 µM (inactive)	13.5 µM (inactive)	13.8 µM (inactive)	10.9 µM	14.5 µM (inactive)	
CC(=O)NC(CS)C(=O)NC(CO)C(=O)NC(CO)C(=O)NC(Cc1c[nH]c2ccccc12)C(=O)N1CCCC1C(=O)NC(CO)C(=O)NC(Cc1c[nH]c2ccccc12)C(=O)NC(Cc1c[nH]cn1)C(=O)NC(CO)C(=O)NC(Cc1c[nH]c2ccccc12)C(=O)NCC(=O)NCC(=O)NC(C)C(=O)NC(CCC(N)=O)C(=O)NC(CCCCN)C(=O)NC(C)C(=O)NC(CCCNC(=N)N)C(=O)NC(CCCCN)C(N)=O (centres undefined) (Ac-CSSWPSWHSWGGAQKARK-NH2; configuration not given here)	10 µM (inactive)	> 50 µM (inactive)	29.2 µM (inactive)	> 50 µM (inactive)	> 50 µM (inactive)	11.1 µM (inactive)	11.9 µM (inactive)	11 µM (inactive)	> 50 µM (inactive)	17.7 µM (inactive)	39 µM (inactive)	> 50 µM (inactive)	14.8 µM (inactive)	14.4 µM (inactive)	12.8 µM (inactive)	> 50 µM (inactive)	12.4 µM (inactive)	41.3 µM	12.4 µM (inactive)	
